In US20090042942A1 (priority 2005, published 2009):
pIC50: −log10 of the molar value.

What follows are compounds tested against T1, human muscarinic acetylcholine M3 receptor (M3-ACh) (Homo sapiens, UniProt P20309) (assay: biochemical).
T1 construct: expressed in transfected cells; host or cells: CHO-KL (Chinese Hamster Ovary) cells, membranes
Type: binding

T1 sequence (P20309 whole entry): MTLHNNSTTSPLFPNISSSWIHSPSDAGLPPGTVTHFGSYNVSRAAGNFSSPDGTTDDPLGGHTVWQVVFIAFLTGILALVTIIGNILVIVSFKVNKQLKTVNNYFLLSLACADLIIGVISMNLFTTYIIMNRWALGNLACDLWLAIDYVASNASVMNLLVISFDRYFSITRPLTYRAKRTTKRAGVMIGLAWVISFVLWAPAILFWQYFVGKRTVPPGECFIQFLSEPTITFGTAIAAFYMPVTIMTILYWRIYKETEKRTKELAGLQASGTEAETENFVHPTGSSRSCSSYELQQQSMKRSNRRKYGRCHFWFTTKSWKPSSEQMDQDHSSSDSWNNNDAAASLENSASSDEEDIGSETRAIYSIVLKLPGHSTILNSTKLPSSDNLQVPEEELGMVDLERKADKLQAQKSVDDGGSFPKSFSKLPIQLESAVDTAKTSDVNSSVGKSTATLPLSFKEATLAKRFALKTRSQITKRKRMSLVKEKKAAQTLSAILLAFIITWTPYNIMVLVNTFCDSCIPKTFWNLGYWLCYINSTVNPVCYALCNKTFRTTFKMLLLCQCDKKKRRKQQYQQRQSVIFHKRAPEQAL

Row | SMILES | pIC50
1 | CN1CC[C@H](OC(=O)[C@@](C)(c2ccccc2)C2CCCC2)C1 [Example 1f, (3S)-1-Methylpyrrolidin-3-yl (2R)-2-cyclopentyl-2-phenylpropanoate] | 7.70
2 | CN1CC[C@@H](OC(=O)[C@@](C)(c2ccccc2)C2CCCC2)C1 [Example 2a, (3R)-1-Methylpyrrolidin-3-yl (2R)-2-cyclopentyl-2-phenylpropanoate] | 8.10
3 | CN1CC[C@H](OC(=O)[C@](C)(c2ccccc2)C2CCCC2)C1 [Example 3c, (3S)-1-Methylpyrrolidin-3-yl (2S)-2-cyclopentyl-2-phenylpropanoate] | 8.50
4 | CN1CC[C@@H](OC(=O)[C@](C)(c2ccccc2)C2CCCC2)C1 [Example 4a, (3R)-1-Methylpyrrolidin-3-yl (2S)-2-cyclopentyl-2-phenylpropanoate] | 9.10
5 | C[C@@](C(=O)O[C@@H]1CCC[N+](C)(C)C1)(c1ccccc1)C1CCCC1 [Example 5, (3R)-3-{[(2S)-2-Cyclopentyl-2-phenylpropanoyl]oxy}-1,1-dimethylpiperidinium iodide] | 8.90
6 | C[C@@](C(=O)O[C@H]1CCC[N+](C)(C)C1)(c1ccccc1)C1CCCC1 [Example 6, (3S)-3-{[(2S)-2-Cyclopentyl-2-phenylpropanoyl]oxy}-1,1-dimethylpiperidinium iodide] | 7.70
